Measured values reported in US20080194507A1, “Defibrotide An/Or Oligodeoxyribonucleotides For Treating Angiogenesis-Dependent Tumors” (priority 2005, published 2008).

Key:
[1] = test system: activated p70S6 kinase (p-p70S6); assay: Western Blot analyses of activated p70S6 kinase; assay type: cell-based; conditions: preliminary evidence
[2] = test system: human microvascular endothelial cells; assay: Angiogenesis assay of microvascular endothelial cells vascularizing through a layer of dermal fibroblasts; assay type: cell-based
Protocol: The aortic ring assay investigates macrovascular endothelial cells. But often, the tumor vasculature consists of microvascular endothelial cells. Therefore, a third in vitro angiogenesis assay was performed on the basis of microvascular endothelial cells vascularizing through a layer of dermal fibroblasts after 9-11 days of culture. These vessel-like structures can subsequently be visualized by staining for CD31 and vWF.

human gastric carcinoma = assay: Dorsal skin chamber assay, human gastric carcinoma mouse model (Xenograft system); assay type: in vivo; conditions: first data; treated vs control tumors
Description: We are currently performing a dorsal skin chamber assay (14) that investigates the effect of defibrotide in a highly vascularized human gastric carcinoma mouse model (Xenograft system). […] This set of experiments will be reproduced in due time.

[3] = test system: microvascular endothelial cells (HMEC); assay: Matrigel tube formation assay of HMEC; assay type: cell-based, human; conditions: single addition, 10 μg/mL, 7 days
Protocol: (§1) The Matrigel™ assay is one of the most popular and widely used in vitro angiogenesis assays (22). Matrigel™ is a semisolid synthetic mixture of extracellular matrix proteins which simulate the matrix that physiologically exist beneath the endothelial cell wall of a blood vessel. When the cells of question are seeded onto this matrix in microscopic chamber slides, they are activated to form tubular structures in 3-7 days, but only in the case that they have an endothelial phenotype. Therefore, this assay is suitable to show the potential capacity of cells to give rise to a tumor vasculature.
(§2) TuDC-ELC and mature, differentiated endothelial cells, [human umbilical vene (HUVEC) or microvascular endothelial cells (HMEC) as “stable” controls] were incubated in the presence or absence of oligotide or Defibrotide (10 μg/mL each) for 7 days.

[4] = test system: human umbilical vene (HUVEC) endothelial cells; assay: Matrigel tube formation assay of HUVEC; assay type: cell-based; conditions: single addition, 10 μg/mL, 7 days
Protocol: as §1, §2

[5] = test system: transdifferentiating ELC (TuDC-ELC); assay: Matrigel tube formation assay of TuDC-ELC; assay type: cell-based, human; conditions: for tube formation of TuDC-ELC in Matrigel: 10 μg/mL, 7 days, clinical and subclinical concentrations
Description: We have recently developed a model for an alternative pathway of tumor angiogenesis. […] These endothelial-like cells (ELC) can transdifferentiate from tumor-associated dendritic cells under specific culture conditions (11). Briefly, monocytes are elutriated from leukapheresis products of healthy human blood donors and cultured in the presence of granulocyte-macrophage-colony stimulating factor (GM-CSF) and interleukin 4 (IL-4) to stimulate the differentiation of dendritic cells (DC). In addition, cells are treated with a cocktail specifically released by tumor cells (M-CSF, IL.6 and lactate, Gottfried et al., manucript submitted) to promote the outgrowth of tumor-associated dendritic cells (TuDC).
In addition, they are able to form tube-like structures in Matrigel™, an in vitro assay of angiogenesis.
as §1, §2
By the help of a complimentary software from the NIH (Image J, http://rsb.info.nih.gov/ij/), we are able to quantify these effects, the total length of tubes and the area of the photograph are assessed, the microvascular density (MVD) is then given in total length/area [pix-1].

Row | Substance | effect on activated p70S6 kinase (p-p70S6) [1] | angiogenesis of human microvascular endothelial cells ([2]; daily application, 9-11 days of culture, CD31 and vWF staining) | most effective concentration ([2]; human microvascular endothelial cells, FIGS. 3A and B) | microvascular density (MVD) of tumors (human gastric carcinoma) | tube formation potential [3] | tube formation potential [4] | tube formation of TuDC-ELC in Matrigel [5] | microvascular density (MVD), total length/area ([5]; TuDC-ELC, p=0.02, TTEST, FIG. 1B)
1 | defibrotide | downregulating effect | block angiogenesis | around 10 μg/mL | lower than that of control tumors | not affected | not affected | inhibit tube formation | downregulates
2 | oligotide |  |  |  |  |  |  | inhibit tube formation | 
